The test system of test [1] is KMS-12-BM myeloma cell line. Nature of the test: Pim cell assay: phospho-BAD (S112) and total BAD in KMS-12-BM cells. Format: cell-based. The settings on record: 1 hour and 50 minutes incubation, read-out: KMS-12-BM IC50 IP. On the procedure: The KMS-12-BM myeloma cell line was used to determine the in vitro cellular inhibition of Pim kinases. Disruption of Pim signaling by Pim inhibitors was determined by measuring the levels of phospho-BAD (S112) and total BAD. […] The cells were then incubated overnight at 37° C., 5% CO2. […] In addition to the 10-point dosing curve of the test compound, DMSO alone was run as a control. This dilution in DMSO was then diluted again into cell growth medium. Aliquots (11.1 uL) of the compound diluted in growth medium were then transferred to the appropriate wells of the 96-well plates containing cells to yield a final DMSO concentration of 0.3%. The cell plates were then incubated with compound for 1 hour and 50 minutes at 37° C., 5% CO2. After the 1 hour and 50 min incubation, the cell plates were spun at 1000 RPM for 10 minutes and the compound-containing medium was removed. […] The cell plates containing lysis buffer were then immediately stored at −70° C. These prepared lysates were then assayed for phospho-(S112) and total-BAD according to the manufacturer's protocol (Meso Scale Diagnostics, Cat # K15103D-3). The plates were read on the MSD Sector Imager 6000, and results were calculated according to the assay protocol: ((% Phosphoprotein=((2×Phospho signal)/(Phospho signal+Total signal))×100)).

The next test has as its target Pim-1 (Homo sapiens (Human), UniProt P11309). Briefly: Pim enzyme assay (HTRF, phosphorylation of biotinylated-BAD (S112) peptide), Pim-1. Format: biochemical. From the text: (§1) Full-length human cDNAs encoding Pim-1 (MGC ID 3913552) or Pim-2 (IMAGE ID 5092935) were purchased from Invitrogen, Carlsbad, Calif. These cDNAs were used as templates in PCR reactions to produce full-length DNA clones of the PIMs. Oligonucleotide PCR primers for Pim-1 were 5′-[…]-3′ and 5′-[…]-3′. Oligonucleotide PCR primers for Pim-2 were 5′-[…]-3′ and 5′-[…]-3′. PCR products were digested with BclI and EcoRI for Pim-1 and BamHI and EcoRI for Pim-2 and ligated into a modified baculovirus transfer vector (pFastBac 1) cleaved with BamHI and EcoRI. For bacterial expression, the same cleaved PCR products encoding Pim-1 or Pim-2 were ligated into a modified E. coli expression vector pET28(a) cleaved with BamHI and EcoRI. Amino-terminal hexahistidine tags followed by a thrombin cleavage site were previously added to the vectors using standard methods of molecular biology. Recombinant baculoviruses expressing Pim-1 or Pim-2 were made using standard methods (Fastbac manual, Invitrogen, Carlsbad, Calif.). Infection of Sf9 cells was done at an m.o.i. of greater than 5 for 24-48 h. Cells were harvested by centrifugation and frozen at −80 C. For E. coli expression, cells carrying pET28-His6-Th-Pim-1 or pET28-His6-Th-Pim-2 were picked from a single colony and grown o/n in LB media. The o/n culture was used to inoculate a 2 liter flask with 500 mL media. This was grown o/n and used to inoculate 15-20 liters of Terrific Broth in a New Brunswick Scientific fermentor. The E. coli were grown at 37° C. to and OD600>1.6. The temperature was dropped to 18° C. and o/n expression was induced with 0.5 mM IPTG. Cells were harvested by centrifugation and frozen at −80° C.
(§2) The frozen cell pellets were thawed by stirring in chilled lysis buffer (0.05 M HEPES, pH 8.0, 0.25 M NaCl, 0.01 M 2-mercaptoethanol, 10% (w/v) glycerol, 0.5% (v/v) protease inhibitor cocktail (Sigma P-8340) at a ratio of 1 L/200 g cells until homogeneous. The thawed suspension was applied to a microfluidizer at 10,000 PSI to disrupt the cells and the whole lysates were clarified by centrifugation at 50,000×g for 90 min, 4° C. Imidazole was added to the clarified lysate to a final concentration of 2.5 mM and the lysate was mixed with 10 mL of Talon resin (Clontech) and the slurry rocked gently overnight at 4° C. The slurry was centrifuged at 1,000×g for 5 min, the supernatant decanted, and the resin suspended in 40 mL of lysis wash buffer (lysis buffer at 0.75 M NaCl). This step was repeated 3× and the resin was transferred to a 2.5 cm glass column. Ten column volumes of wash buffer (0.05 M HEPES, pH 8.0, 0.1 M NaCl, 0.01 M 2-mercaptoethanol, 10% (w/v) glycerol) were applied to the resin followed by 10 column volumes of elution buffer (0.05 M HEPES, pH 8.0, 0.25 M NaCl, 0.01 M 2-mercaptoethanol, 10% (w/v) glycerol, 0.1 M imidazole). Fractions were analyzed by SDS-PAGE and those containing the protein of interest were pooled and concentrated. The concentrated protein was applied to an Amersham Superdex 75 (XK 26/60) column equilibrated in 0.025 M Tris-HCl, pH 7.5, 0.1 M NaCl, 0.01 M 2-mercaptoethanol, 10% (w/v) glycerol. […] Fractions containing the monomeric protein of interest were pooled, concentrated to ˜2 mg/mL, and stored at −80° C.
(§3) The phosphorylation of biotinylated-BAD (S112) peptide by full length recombinant Pim-1, Pim-2, or Pim-3 protein was detected with streptavidin:Allophycocyanin (APC) conjugate and a europium (Eu) labeled antibody directed against phosphorylated-BAD (S112). Excitation of Eu by a high energy laser light (337 nm) leads to a transfer of energy to the APC molecule, and results in an emission at 665 nm. The fluorescence is directly proportional to the amount of phosphorylated BAD peptide present in the reaction.

A further test addresses Pim-2 (Homo sapiens (Human), UniProt Q9P1W9). Nature of the test: Pim enzyme assay (HTRF, phosphorylation of biotinylated-BAD (S112) peptide), Pim-2. The class given is biochemical. The settings on record: full length recombinant Pim-2, biotinylated-BAD (S112) peptide, HTRF.
Excerpt: as §1, §2, §3

Where [2] appears, read: full length recombinant Pim-1, biotinylated-BAD (S112) peptide, HTRF, 96-well, read-out: Pim-1 IC50 IP.
[3] abbreviates: 96-well, read-out: Pim-2 IC50 IP.

Structures are written as SMILES. Counter-ions that a name gives are not always drawn. Like-named read-outs stand apart in the source and are kept apart here.

Pim-2, sequence (Q9P1W9 whole entry): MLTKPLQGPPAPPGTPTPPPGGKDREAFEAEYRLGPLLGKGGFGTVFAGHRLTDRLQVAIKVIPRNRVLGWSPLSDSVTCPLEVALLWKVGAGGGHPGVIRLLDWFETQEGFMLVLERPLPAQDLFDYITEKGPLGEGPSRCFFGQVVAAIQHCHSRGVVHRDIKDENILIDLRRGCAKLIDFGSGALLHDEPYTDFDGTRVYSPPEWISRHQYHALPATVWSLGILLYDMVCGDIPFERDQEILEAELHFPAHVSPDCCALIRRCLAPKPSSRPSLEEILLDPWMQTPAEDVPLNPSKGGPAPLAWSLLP
Pim-1, sequence (P11309 whole entry): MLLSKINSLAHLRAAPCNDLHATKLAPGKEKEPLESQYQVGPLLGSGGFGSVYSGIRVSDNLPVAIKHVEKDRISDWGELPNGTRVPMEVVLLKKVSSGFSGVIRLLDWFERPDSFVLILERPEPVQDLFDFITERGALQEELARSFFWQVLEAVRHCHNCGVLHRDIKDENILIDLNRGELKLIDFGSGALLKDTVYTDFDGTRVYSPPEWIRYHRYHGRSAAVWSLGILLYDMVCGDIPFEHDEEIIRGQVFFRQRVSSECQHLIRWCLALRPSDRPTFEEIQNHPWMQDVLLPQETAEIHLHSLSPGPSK

Take `C[C@@H]1C[C@H](N)CN(c2ccncc2Nc2ncc3ccc(-c4c(F)cccc4F)nn23)C1` (racemic) [Example 37, rac-N-(4-((cis)-3-amino-5-methylpiperidin-1-yl)pyridin-3-yl)-2-(2,6-difluorophenyl)imidazo[1,5-b]pyridazin-7-amine tris(2,2,2-trifluoroacetate)]: in test [1] (Homo sapiens, KMS-12-BM), the IC50 amounted to 95 nM.

`N[C@@H]1CN(c2ccncc2Nc2ncc3ccc(-c4c(F)cccc4F)nn23)CC[C@H]1F` (single isomer, unassigned) [Example 45, N-(4-(trans-3-amino-4-fluoropiperidin-1-yl)pyridin-3-yl)-2-(2,6-difluorophenyl)imidazo[1,5-b]pyridazin-7-amine]: the IC50 in test [1] was determined as 1070 nM. In the case of `N[C@@H]1C=C(c2ccncc2Nc2ncc3ccc(-c4c(F)cccc4F)nn23)CCC1` (single isomer, unassigned) [Example 83, N-(4-(3-aminocyclohex-1-en-1-yl)pyridin-3-yl)-2-(2,6-difluorophenyl)imidazo[1,5-b]pyridazin-7-amine tris(2,2,2-trifluoroacetate)], the IC50 was determined as 1.1 nM at Pim-1 (setting [2]) and 1090 nM in test [1] (Homo sapiens, KMS-12-BM). For `C[C@H]1CC[C@H](N)CN1c1ccncc1Nc1ncc2ccc(-c3ncccc3F)nn12` (single isomer, unassigned) [Example 97, N-(4-((trans)-5-amino-2-methylpiperidin-1-yl)pyridin-3-yl)-2-(3-fluoropyridin-2-yl)imidazo[1,5-b]pyridazin-7-amine tris(2,2,2-trifluoroacetate)], in test [1] (Homo sapiens, KMS-12-BM), the IC50 amounted to 362 nM. With `C[C@H]1CC[C@@H](N)CN1c1ccncc1Nc1ncc2ccc(-c3ncccc3F)nn12` (single isomer, unassigned) [Example 94, N-(4-((cis)-5-amino-2-methylpiperidin-1-yl)pyridin-3-yl)-2-(3-fluoropyridin-2-yl)imidazo[1,5-b]pyridazin-7-amine tris(2,2,2-trifluoroacetate)], the IC50 in test [1] (tris(2,2,2-trifluoroacetate)) was determined as 14100 nM. For the molecule `C[C@@H]1CN(c2ccncc2Nc2ncc3ccc(-c4c(F)cccc4F)nn23)[C@@H](C)CN1` (single isomer, unassigned) [Example 52, 2-(2,6-difluorophenyl)-N-(4-((trans)-2,5-dimethyl-1-piperazinyl)-3-pyridinyl)imidazo[1,5-b]pyridazin-7-amine], the IC50 in test [1] (Homo sapiens, KMS-12-BM) was over 15800 nM. Regarding `N[C@@H]1CN(c2ccncc2Nc2ncc3ccc(-c4c(F)cccc4F)nn23)CC[C@H]1F` (racemic) [Example 43, rac-N-(4-(trans-3-amino-4-fluoropiperidin-1-yl)pyridin-3-yl)-2-(2,6-difluorophenyl)imidazo[1,5-b]pyridazin-7-amine], the IC50 in test [1] (Homo sapiens, KMS-12-BM) was found to be 465 nM. As for `N[C@@H]1C=C(c2ccncc2Nc2ncc3ccc(-c4c(F)cccc4F)nn23)CC[C@H]1F` (racemic) [Example 93, (2,2,2-trifluoroacetate)], the IC50 is 15.5 nM on Pim-2 (setting [3]) and 2600 nM in test [1] (Homo sapiens, KMS-12-BM). For the molecule `C[C@H]1CC[C@H](N)CN1c1ccncc1Nc1ncc2ccc(-c3c(F)cccc3F)nn12` (single isomer, unassigned) [Example 88, N-(4-(5-amino-2-methylpiperidin-1-yl)pyridin-3-yl)-2-(2,6-difluorophenyl)imidazo[1,5-b]pyridazin-7-amine tris(2,2,2-trifluoroacetate)], the IC50 in test [1] (tris(2,2,2-trifluoroacetate)) was determined as 9820 nM. For the molecule `N[C@@H]1C=C(c2ccncc2Nc2ncc3ccc(-c4c(F)cccc4F)nn23)CCC1` (racemic) [Example 82, rac-N-(4-(3-aminocyclohex-1-en-1-yl)pyridin-3-yl)-2-(2,6-difluorophenyl)imidazo[1,5-b]pyridazin-7-amine tris(2,2,2-trifluoroacetate)], the IC50 at Pim-1 (setting [2]) is 1.2 nM; in test [1] (Homo sapiens, KMS-12-BM) it was 1200 nM.

With `C[C@@H]1C[C@H](N)CN(c2ccncc2Nc2ncc3ccc(-c4c(F)cccc4F)nn23)C1` (single isomer, unassigned) [Example 39, N-(4-((cis)-3-amino-5-methylpiperidin-1-yl)pyridin-3-yl)-2-(2,6-difluorophenyl)imidazo[1,5-b]pyridazin-7-amine], in test [1], the IC50 is 1750 nM. For the molecule `C[C@H]1CC[C@H](N)CN1c1ccncc1Nc1ncc2ccc(-c3c(F)cccc3F)nn12` (single isomer, unassigned) [Example 87, N-(4-(5-amino-2-methylpiperidin-1-yl)pyridin-3-yl)-2-(2,6-difluorophenyl)imidazo[1,5-b]pyridazin-7-amine tris(2,2,2-trifluoroacetate)], the IC50 in test [1] (tris(2,2,2-trifluoroacetate)) was 48.8 nM. As to `C[C@H]1CN(c2ccncc2Nc2ncc3ccc(-c4c(F)cccc4F)nn23)[C@@H](C)CN1` [Example 49, 2-(2,6-difluorophenyl)-N-(4-((2S,5S)-2,5-dimethylpiperazin-1-yl)pyridin-3-yl)imidazo[1,5-b]pyridazin-7-amine], the IC50 in test [1] (Homo sapiens, KMS-12-BM) was 12100 nM. Consider `C[C@@H]1C[C@H](N)CN(c2ccncc2Nc2ncc3ccc(-c4c(F)cccc4F)nn23)C1` (single isomer, unassigned) [Example 38, N-(4-((cis)-3-amino-5-methylpiperidin-1-yl)pyridin-3-yl)-2-(2,6-difluorophenyl)imidazo[1,5-b]pyridazin-7-amine], for which the IC50 in test [1] was found to be 27.6 nM. Turning to `COC(C)CN(C)c1ccncc1Nc1ncc2ccc(-c3c(F)cccc3F)nn12` (stereo not drawn) [Example 77, N3-(2-(2,6-difluorophenyl)imidazo[1,5-b]pyridazin-7-yl)-N4-(2-methoxypropyl)-N4-methylpyridine-3,4-diamine], the IC50 at Pim-1 (setting [2]) is 150 nM; on Pim-2 (setting [3]), over 1000 nM. Turning to `N[C@H]1CCCN(c2sncc2Nc2ncc3ccc(-c4c(F)cccc4F)nn23)C1` [Example 31, N-(5-((3S)-3-amino-1-piperidinyl)-4-isothiazolyl)-2-(2,6-difluorophenyl)imidazo[1,5-b]pyridazin-7-amine dihydrochloride], the IC50 at Pim-1 (read-out: Pim_1_IC50) is 50 nM; on Pim-2 (read-out: Pim2_IC50), 136 nM.

Values taken from patent US9187486B2 (AMGEN INC., priority 2011, dated 2015).
